Values quoted from earlier work, collected in patent publication US5688981A, “Ethylenediaminetriacetic acid and N-acyl ethylenediaminetriacetic acid silver chelating agents and surfactants” (Hampshire Chemical Corp., priority 1996, dated 1997).

Columns and labels:
[1] = background

Compound	concentration with propensity towards protein precipitation (protein)	toxicity on oral administration [1]
O=C([O-])CC(O)(CC(=O)[O-])C(=O)[O-].[Ag+].[Ag+].[Ag+] [silver citrate]	10^-4 M	–
[Ag+].[Ag+].[O-2] [silver oxide]	10^-4 M	–
O=[N+]([O-])[O-].[Ag+] [silver nitrate]	–	can cause severe gastroenteritis which may be fatal
CC(O)C(=O)[O-].[Ag+] (centres unmarked) [silver lactate]	10^-4 M	–
[Ag][I] [silver iodide]	10^-4 M	–
